Values quoted from earlier work in publication PMC12580772, “A First-in-Human Study of ATM Inhibitor Lartesertib as Monotherapy in Patients with Advanced Solid Tumors” (Clinical Cancer Research, 2025).

Test system: patient-derived xenograft models of triple-negative breast cancer
Set-up: method as in PMID 37079339
Conditions: single-agent gartisertib; cited from earlier work

Nc1nn2cc(F)cnc2c1C(=O)Nc1cncc(F)c1N1CCC(C(=O)N2CCN(C3COC3)CC2)CC1 [gartisertib, reference compound]
Tumor control rate: 27%
